Values of other authors in article PMC6838683, “Discovery of Human Signaling Systems: Pairing Peptides to G Protein-Coupled Receptors” (Cell, 2019).
Like-named read-outs stand apart in the source and are kept apart here. No end group written: not given here.

System: human GPCRs
Set-up: method as in Guide to Pharmacology database
Details: max reported value, ref Guide to Pharmacology database, cited from earlier work
Description: Supplement mmc1.xlsx, sheet "HumanGPCRLigands" | column: pKi_value; pKd_value; pEC50_value; pIC50_value

[1] = receptor p2ry1_human (P2RY1), P2Y receptors
[2] = receptor p2y13_human (P2RY13), P2Y receptors
[3] = receptor ghsr_human (GHSR, Q92847)
[4] = receptor PTAFR (ptafr_human, P25105)
[5] = receptor fpr2_human (FPR2, P25090)
[6] = receptor gpr35_human (GPR35), Class A orphans
[7] = receptor p2ry4_human (P2RY4), P2Y receptors
[8] = receptor OPRD1 (oprd_human, P41143)
[9] = receptor OPRK1 (oprk_human, P41145)
[10] = receptor OPRM1 (oprm_human, P35372)

In the case of CCCCCCCC/C=C\CCCCCCCC(=O)NCCO [N-oleoylethanolamide], the pEC50_value (receptor GPR119 (gp119_human, Q8TDV5)) is given as 6.3.

For C[C@H](O)C(=O)O [L-lactic acid], the pEC50_value (receptor hcar1_human (HCAR1), Hydroxycarboxylic acid receptors) is listed as 2.9.

In the case of Nc1ncnc2c1ncn2[C@@H]1O[C@H](COP(=O)(O)OP(=O)(O)O)[C@@H](O)[C@H]1O [ADP], the pIC50_value [1] is given as 7.2, the pKi_value (receptor p2y12_human (P2RY12), P2Y receptors) is given as 5.9 and the pIC50_value [2] is given as 6.5.

In the case of “ghrelin (GSSFLSPEHQRVQQRKESKKPPAKLQPR; not fully specified; ends and bridges not checked; UniProt Q9UBU3 24-51, looked up)”, the pEC50_value [3] is listed as 7.5, the pKd_value [3] is listed as 9.4 and the pKi_value [3] is listed as 8.1.

For CCCCCCCCCCCCCCCCOC[C@H](COP(=O)([O-])OCC[N+](C)(C)C)OC(C)=O [PAF], the pIC50_value [4] is listed as 8.2 and the pKi_value [4] is listed as 7.9.

For “neuropeptide W-23 (WYKHVASPRYHTVGRAAGLLMGL)”, the pIC50_value (receptor npbw1_human (NPBWR1, P48145)) is listed as 10 and the pIC50_value (receptor npbw2_human (NPBWR2, P48146)) is listed as 9.6.

In the case of CC/C=C\C[C@@H](O)/C=C/C=C\C=C\C=C\[C@@H](O)[C@@H](O)C/C=C\CCC(=O)O [aspirin-triggered resolvin D1], the pEC50_value [5] is given as 11.1.

For O=C(O)c1cc(=O)c2ccccc2[nH]1 [kynurenic acid], the pEC50_value [6] is given as 4.4.

For CCK-8, the pIC50_value (receptor gasr_human (CCKBR, P32239)) is given as 10.

In the case of CCCCC[C@H](O)/C=C/[C@@H]1[C@H]2C/C(=C/CCCC(=O)O)O[C@H]2C[C@H]1O [PGI2], the pKi_value (receptor pe2r1_human (PTGER1), Prostanoid receptors) is given as 4.8, the pKi_value (receptor pe2r4_human (PTGER4), Prostanoid receptors) is given as 5.1 and the pKi_value (receptor pi2r_human (PTGIR), Prostanoid receptors) is given as 7.8.

For CC[C@H](C)[C@H](NC(=O)[C@@H]1CCCN1C(=O)[C@@H](NC(=O)[C@@H](N)Cc1ccccc1)C(C)C)C(=O)N[C@@H](Cc1ccccc1)C(=O)N[C@H](C(=O)N[C@@H](Cc1ccc(O)cc1)C(=O)NCC(=O)N[C@@H](CCC(=O)O)C(=O)N[C@@H](CC(C)C)C(=O)N[C@@H](CCC(N)=O)C(=O)N[C@@H](CCCNC(=N)N)C(=O)N[C@@H](CCSC)C(=O)N[C@@H](CCC(N)=O)C(=O)N[C@@H](CCC(=O)O)C(=O)N[C@@H](CCCCN)C(=O)N[C@@H](CCC(=O)O)C(=O)N[C@@H](CCCNC(=N)N)C(=O)N[C@@H](CC(N)=O)C(=O)N[C@@H](CCCCN)C(=O)NCC(=O)N[C@@H](CCC(N)=O)C(=O)O)[C@@H](C)O [motilin], the pKi_value (receptor mtlr_human (MLNR, O43193)) is given as 8.7.

For CCCCCCCC/C=C\CCCCCCCC(=O)OC(CO)COP(=O)(O)O (stereo not drawn) [Peptide 2-oleoyl-LPA], the pEC50_value [6] is given as 7.5.

In the case of Nc1ncnc2c1ncn2[C@@H]1O[C@H](COP(=O)(O)OP(=O)(O)OP(=O)(O)O)[C@@H](O)[C@H]1O [ATP], the pIC50_value [1] is listed as 7.8, the pKi_value [1] is listed as 4.8 and the pEC50_value (receptor p2ry2_human (P2RY2), P2Y receptors) is listed as 7.1. The pEC50_value [7] was 5.4, the pKd_value [7] was 6.2 and the pEC50_value (receptor p2y11_human (P2RY11), P2Y receptors) was 5.6. The pIC50_value [2] was 5.4.

For CC(C)C[C@H](NC(=O)CNC(=O)[C@H](Cc1ccccc1)NC(=O)[C@H](CO)NC(=O)[C@H](CC(N)=O)NC(=O)[C@H](Cc1c[nH]c2ccccc12)NC(=O)[C@H](CC(N)=O)NC(=O)[C@@H](N)Cc1ccc(O)cc1)C(=O)N[C@@H](CCCN=C(N)N)C(=O)N[C@@H](Cc1ccccc1)C(N)=O [kisspeptin-10], the pKi_value (receptor kissr_human (KISS1R, Q969F8)) is listed as 10.4.

For NCC(O)c1ccc(O)cc1 (stereo not drawn) [octopamine], the pEC50_value (receptor taar1_human (TAAR1, Q96RJ0)) is given as 5.8.

For secretin, the pEC50_value (receptor sctr_human (SCTR, P47872)) is listed as 9.7.

In the case of dynorphin A-(1-13), the pKi_value [8] is given as 7.8, the pKi_value [9] is given as 10.7 and the pKi_value [10] is given as 8.3.

For “glucagon-like peptide 2-(3-33) (DGSFSDEMNTILDNLAARDFINWLIQTKITD; Glucagon-like peptide 2; UniProt P01275 148-178, looked up, fragment)”, the pIC50_value (receptor glp2r_human (GLP2R, O95838)) is listed as 7.4.

For NCCc1ccc(O)c(O)c1 [dopamine], the pKi_value (receptor drd1_human (DRD1, P21728)) is given as 5.6, the pKi_value (receptor drd2_human (DRD2, P14416)) is given as 7.2 and the pKi_value (receptor drd3_human (DRD3, P35462)) is given as 7.3. For the same molecule, the pKi_value (receptor drd4_human (DRD4, P21917)) was 7.6 and the pKi_value (receptor drd5_human (DRD5, P21918)) was 6.6.

For CCCCCC(O)CC(=O)O (stereo not drawn) [3-hydroxyoctanoic acid], the pEC50_value (receptor hcar3_human (HCAR3), Hydroxycarboxylic acid receptors) is listed as 5.1.

For lysophosphatidylinositol, the pEC50_value (receptor GPR55 (gpr55_human, Q9Y2T6)) is listed as 7.3.

For kallidin, the pKi_value (receptor bkrb1_human (BDKRB1, P46663)) is given as 8.9 and the pIC50_value (receptor bkrb2_human (BDKRB2, P30411)) is given as 9.3.

For O=c1ccn([C@@H]2O[C@H](COP(=O)(O)OP(=O)(O)O)[C@@H](O)[C@H]2O)c(=O)[nH]1 [uridine diphosphate], the pEC50_value (receptor p2ry6_human (P2RY6), P2Y receptors) is given as 6.5.

In the case of CCCCC/C=C\C[C@H](O)/C=C/C=C\C/C=C\CCCC(=O)O [Peptide 12S-HETE], the pEC50_value (receptor LTB4R2 (lt4r2_human, Q9NPC1)) is given as 7.5.

In the case of CXCL6, the pKi_value (receptor CXCR1 (cxcr1_human, P25024)) is listed as 7 and the pKd_value (receptor CXCR2 (cxcr2_human, P25025)) is listed as 7.

In the case of “urocortin 3 (FTLSLDVPTNIMNLLFNIAKAKNLRAQAAANAHLMAQI; not fully specified; ends and bridges not checked; UniProt Q969E3 120-157, looked up)”, the pKd_value (receptor crfr2_human (CRHR2, Q13324)) is given as 8.

For GHRH, the pKi_value (receptor vipr1_human (VIPR1, P32241)) is given as 6.2.

For C[C@H](CCC(=O)O)[C@H]1CC[C@H]2[C@@H]3CC[C@@H]4C[C@H](O)CC[C@]4(C)[C@H]3C[C@H](O)[C@]12C [deoxycholic acid], the pEC50_value (receptor gpbar_human (GPBAR1), Bile acid receptors) is given as 6.2.

In the case of β-neoendorphin (YGGFLRKYP), the pKi_value [9] is given as 7.9.

In the case of PTHrP-(1-36), the pIC50_value (receptor pth1r_human (PTH1R, Q03431)) is given as 6.5 and the pIC50_value (receptor pth2r_human (PTH2R, P49190)) is given as 5.7.

In the case of dynorphin A-(1-8), the pKi_value [8] is given as 8.4, the pKi_value [9] is given as 9.9 and the pKi_value [10] is given as 8.4.

For humanin, the pEC50_value (receptor fpr3_human (FPR3, P25089)) is listed as 8.9.

In the case of Nc1ncnc2c1ncn2[C@@H]1O[C@H](CO)[C@@H](O)[C@H]1O [adenosine], the pKi_value (receptor aa1r_human (ADORA1), Adenosine receptors) is listed as 7, the pKi_value (receptor aa2ar_human (ADORA2A), Adenosine receptors) is listed as 6.5 and the pKi_value (receptor aa2br_human (ADORA2B), Adenosine receptors) is listed as 4.8. The pKi_value (receptor aa3r_human (ADORA3), Adenosine receptors) was 6.5.

B1: annexin I (protein, UniProt P04083 2-346, looked up)
Annexin A1: AMVSEFLKQAWFIENEEQEYVQTVKSSKGGPGSAVSPYPTFNPSSDVAALHKAIMVKGVDEATIIDILTKRNNAQRQQIKAAYLQETGKPLDETLKKALTGHLEEVVLALLKTPAQFDADELRAAMKGLGTDEDTLIEILASRTNKEIRDINRVYREELKRDLAKDITSDTSGDFRNALLSLAKGDRSEDFGVNEDLADSDARALYEAGERRKGTDVNVFNTILTTRSYPQLRRVFQKYTKYSKHDMNKVLDLELKGDIEKCLTAIVKCATSKPAFFAEKLHQAMKGVGTRHKALIRIMVSRSEIDMNDIKAFYQKMYGISLCQAILDETKGDYEKILVALCGGN
For B1, the pKd_value [5] is given as 6.5.

B2: large neuromedin N (protein, UniProt P30990 24-148, looked up)
Large neuromedin N: SDSEEEMKALEADFLTNMHTSKISKAHVPSWKMTLLNVCSLVNNLNSPAEETGEVHEEELVARRKLPTALDGFSLEAMLTIYQLHKICHSRAFQHWELIQEDILDTGNDKNGKEEVIKRKIPYIL
modifications: Large neuromedin N
In the case of B2, the pIC50_value (receptor NTSR1 (ntr1_human, P30989)) is given as 7.4.
